{"source": "patent US20160114062A1", "about": "“TREATMENT OF IMMUNE, INFLAMMATORY AND DEGENERATIVE ARTHRITIDES WITH TIN-117m” (RHEUMCO LLC, priority 2013, published 2016)", "key": {"[1]": {"assay": "Biodistribution, 2nd study (HSA Sn-117m annexin) in collagen-induced arthritic rats", "assay_type": "in vivo, Rat", "conditions": "dose 50 (mCi), at sacrifice Day 14", "procedure": "(§1) In order to test the efficacy of the present invention, a standard arthritic rat model was employed. Specifically, rodents were injected with collagen, which induced a reaction similar to rheumatoid arthritis. […] Two different studies were conducted.\n(§2) At around day 14, the animals were sacrificed and tissues sent for histological analyses."}, "[2]": {"test_system": "standard arthritic rat model (collagen induced rheumatoid arthritis-like)", "assay": "Histopathology of knees, 2nd study (HSA Sn-117m annexin)", "assay_type": "in vivo", "conditions": "for Bone Resorption Score / Cartilage Damage Score / Inflammation Score / Pannus Score: score 0-5, 0 = normal, 5 = severe", "procedure": "as §1, §2"}, "[3]": {"conditions": "L knee (injected), ~50 uCi into L synovium"}, "[4]": {"conditions": "R knee, ~50 uCi into L synovium"}, "[5]": {"conditions": "mean of all animals, both knees, both routes, score 0-5"}}, "note": "Values joined by “and” are separate entries in the source; they are usually repeats but may differ in a detail not shown here. Identical values can stand only once."}
{"substance": "Sn-117m Annexin: High specific activity tin-117m attached to annexin V through an aminobenzyl DOTA linker", "values": [{"measurement": "Right Leg (% ID)", "setting": "[1]; L Synovium injection", "result": 0.1, "unit": "% ID"}, {"measurement": "Left leg (% ID)", "setting": "[1]; Retro-orbital injection", "result": 0.1, "unit": "% ID"}, {"measurement": "Right Leg (% ID)", "setting": "[1]; Retro-orbital injection", "result": 0.1, "unit": "% ID"}, {"measurement": "Summed Histopathology Scores", "setting": "[2]; [3]", "result": 9}, {"measurement": "Bone Resorption Score", "setting": "[2]; [3]", "result": 1}, {"measurement": "Cartilage Damage Score", "setting": "[2]; [3]", "result": 2}, {"measurement": "Inflammation Score", "setting": "[2]; [3]", "result": 5}, {"measurement": "Pannus Score", "setting": "[2]; [3]", "result": 1}, {"measurement": "Summed Histopathology Scores", "setting": "[2]; L knee, ~50 uCi retro-orbital", "result": "8 and 4"}, {"measurement": "Cartilage Damage Score", "setting": "[2]; L knee, ~50 uCi retro-orbital", "result": "1 and 0.5"}, {"measurement": "Inflammation Score", "setting": "[2]; L knee, ~50 uCi retro-orbital", "result": "5 and 3"}, {"measurement": "Pannus Score", "setting": "[2]; L knee, ~50 uCi retro-orbital", "result": "1 and 0.5"}, {"measurement": "Summed Histopathology Scores", "setting": "[2]; [4]", "result": "9 and 7.5"}, {"measurement": "Bone Resorption Score", "setting": "[2]; [4]", "result": "1 and 0.5"}, {"measurement": "Cartilage Damage Score", "setting": "[2]; [4]", "result": "2 and 1"}, {"measurement": "Inflammation Score", "setting": "[2]; [4]", "result": 5}, {"measurement": "Pannus Score", "setting": "[2]; [4]", "result": 1}, {"measurement": "Cartilage Damage Score", "setting": "[2]; R knee, ~50 uCi retro-orbital", "result": 0.5}, {"measurement": "Pannus Score", "setting": "[2]; R knee, ~50 uCi retro-orbital", "result": 0.5}, {"measurement": "Effectiveness (in words)", "setting": "[2]; administered directly into the synovium, second study", "result": "appears to be effective"}, {"measurement": "Summed Histopathology Scores, Mean", "setting": "[2]; mean of all animals, both knees, both routes", "result": 7.04}, {"measurement": "Bone Resorption Score, Mean", "setting": "[2]; [5]", "result": 0.75}, {"measurement": "Cartilage Damage Score, Mean", "setting": "[2]; [5]", "result": 1.33}, {"measurement": "Inflammation Score, Mean", "setting": "[2]; [5]", "result": 4.04}, {"measurement": "Pannus Score, Mean", "setting": "[2]; [5]", "result": 0.92}]}
